Data reported in the NIST ThermoML archive (doi:10.1016/j.jct.2014.05.003).
± gives the expanded uncertainty stated by the source.

Key:
[1] = wn = mass fraction of the nth substance listed; settings: 298.15 K, 100 kPa, Liquid, Vibrating tube method
[2] = relative permittivity at zero frequency (dimensionless); wn = mass fraction of the nth substance listed; settings: 298.15 K, 100 kPa, Liquid, Coaxial cylinder capacitor

mass density ([1]; w1 = 0.1) [kg/m3] | mass density ([1]; w1 = 0.2) [kg/m3] | mass density ([1]; w1 = 0.3) [kg/m3] | relative permittivity at zero frequency ([2]; w1 = 0.1) | relative permittivity at zero frequency ([2]; w1 = 0.2) | relative permittivity at zero frequency ([2]; w1 = 0.3) | SMILES
996.3 ± 1 | 996.4 ± 1 | 996.9 ± 1 | 76.8 ± 0.2 | 74.6 ± 0.2 | 72.2 ± 0.2 | CN(C)C=O [dimethylformamide] + O
995.7 ± 1 | 996.2 ± 1 | 997.3 ± 1 | – | – | – | CC(=O)N(C)C [N,N-dimethylethanamide] + O
